In the CheMixHub viscosity set:

Test: xn = mol fraction of the nth substance listed

NCCNCCNCCN + CC(C)(N)CO
viscosity [mPa·s], 101 kPa
Details	x1 = 0.0971	x1 = 0.2071	x1 = 0.289	x1 = 0.3787	x1 = 0.4776	x1 = 0.5872	x1 = 0.7092	x1 = 0.8458	x1 = 0.9205
303.15 K	93.54	86.24	80.73	74.33	67.05	58.76	49.22	38.21	32.14
313.15 K	45.15	42.38	40.21	37.61	34.58	30.81	26.45	21.3	18.55
323.15 K	23.64	22.83	22.02	20.95	19.54	17.81	15.76	13.05	11.61

CCCCCCCCCC(=O)O + CCCCCCCCCCCCCC
100 kPa, x2 = 0.8601
Details	viscosity [mPa·s]
298.2 K	2.37
308.2 K	1.9
318.2 K	1.54

COCCn1cc[n+](C)c1.C[C@@H](O)[C@H](N)C(=O)[O-] + O
100 kPa, x2 = 0.6192
Details	viscosity [mPa·s]
298.15 K	766.5
303.15 K	499.5

O=C(c1ccccc1)c1ccccc1 + CCCCCOC(C)=O
298.15 K, 101 kPa
Details	viscosity [mPa·s]
x1 = 0.0417	0.8506
x1 = 0.0472	0.8646

O=C(Cl)c1ccccc1 + c1ccccc1
303.15 K, 101 kPa
Details	viscosity [mPa·s]
x2 = 0.1255	1.176
x2 = 0.2441	1.108
x2 = 0.3564	1.04
x2 = 0.4627	0.9726
x2 = 0.5637	0.9048
x2 = 0.6596	0.8369
x2 = 0.7509	0.7688
x2 = 0.8379	0.7005
x2 = 0.9208	0.632

CCCCCCCCCC(=O)O + CCCCCCCCCCCCCCCCC
100 kPa, x2 = 0.5591
Details	viscosity [mPa·s]
298.2 K	4.83
308.2 K	3.6
318.2 K	2.77

c1ccncc1 + c1ccccc1
viscosity [mPa·s], 101 kPa
Details	x1 = 0.3943	x1 = 0.5905	x1 = 0.7944	x1 = 0.8965	x2 = 0.2	x2 = 0.4	x2 = 0.6	x2 = 0.8
293.15 K	–	–	–	–	0.893	0.832	0.77	0.709
298.15 K	0.7169	0.7726	0.8345	0.8601	–	–	–	–
313.15 K	–	–	–	–	0.678	0.632	0.585	0.538

Cc1cc[n+](CCCO)cc1.[Cl-] + O
viscosity [mPa·s], 100 kPa
Details	x1 = 0.001799	x1 = 0.00269	x1 = 0.003585	x1 = 0.005375	x1 = 0.007144	x1 = 0.008904
293.15 K	1.067	1.092	1.116	1.161	1.204	1.244
298.15 K	0.942	0.963	0.984	1.022	1.059	1.094
303.15 K	0.84	0.859	0.876	0.911	0.943	0.974
308.15 K	0.756	0.772	0.787	0.818	0.847	0.875
313.15 K	0.685	0.699	0.713	0.741	0.767	0.792
